For 36 molecules, IC50 results are on record in patent US9670203B2 (BeiGene, LTD., priority 2013, dated 2017).

Sequence of B-Raf (V600E) (P15056 whole entry V600E): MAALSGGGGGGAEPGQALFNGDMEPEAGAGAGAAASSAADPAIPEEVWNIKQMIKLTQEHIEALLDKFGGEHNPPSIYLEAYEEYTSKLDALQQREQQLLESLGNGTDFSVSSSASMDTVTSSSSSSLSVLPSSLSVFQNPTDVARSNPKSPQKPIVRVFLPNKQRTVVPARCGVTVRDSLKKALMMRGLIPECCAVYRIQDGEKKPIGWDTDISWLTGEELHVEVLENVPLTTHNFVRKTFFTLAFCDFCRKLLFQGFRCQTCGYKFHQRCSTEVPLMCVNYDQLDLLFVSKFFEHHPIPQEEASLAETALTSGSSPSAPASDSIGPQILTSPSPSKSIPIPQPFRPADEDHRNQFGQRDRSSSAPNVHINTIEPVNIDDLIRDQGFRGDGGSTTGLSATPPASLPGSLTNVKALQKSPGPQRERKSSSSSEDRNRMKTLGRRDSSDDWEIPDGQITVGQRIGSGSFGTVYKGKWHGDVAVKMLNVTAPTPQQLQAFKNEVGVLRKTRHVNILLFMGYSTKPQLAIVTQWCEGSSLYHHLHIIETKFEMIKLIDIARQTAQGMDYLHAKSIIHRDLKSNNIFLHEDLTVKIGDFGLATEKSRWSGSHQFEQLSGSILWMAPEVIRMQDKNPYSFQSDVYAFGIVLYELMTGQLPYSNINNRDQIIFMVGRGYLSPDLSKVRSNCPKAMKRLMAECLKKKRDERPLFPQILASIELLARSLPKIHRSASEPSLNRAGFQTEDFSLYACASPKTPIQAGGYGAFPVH

This test concerns the target B-Raf (V600E) (Homo sapiens (Human), UniProt P15056, V600E). Nature of the test: Raf IC50 assay, time-resolved fluorescence energy transfer, B-Raf (V600E). In kind it is biochemical. To be noted: 0.1 mM ATP; read-out: IC50 (nM) B_Raf^V600E.
Procedure: The enzyme was incubated with the compounds at room temperature for 60 minutes and the reactions were initiated by the addition of ATP and GST-MEK1. After reaction at room temperature for 60 minutes, an equal volume of stop/detection solution was added according to the manufacture's instruction (CisBio Bioassays). […] The IC50 for each compound was derived from fitting the dose-response % inhibition data to the four-parameter logistic model by Graphpad Prism software.
Take `COc1ccc(NC(=O)N[C@@H]2[C@H]3Oc4ccc(Oc5ccnc6c5CCC(=O)N6)cc4[C@@H]23)c(Cl)c1` [Compound 1.4]: the concentration for half-maximal inhibition (IC50) – broadly, the midpoint of a concentration-inhibition curve – stood at 1.8 nM.

Regarding `COc1ccc(Cl)c(NC(=O)N[C@@H]2[C@H]3Oc4ccc(Oc5ccnc6c5CCC(=O)N6)cc4[C@@H]23)c1` [Compound 1.5], the IC50 was determined as 2.2 nM.

As for `O=C1CCc2c(Oc3ccc4c(c3)[C@H]3[C@H](NC(=O)Nc5cc(Br)ccc5Cl)[C@H]3O4)ccnc2N1` [Compound 1.8], the half-inhibitory concentration (IC50) was found to be 8.7 nM.

In the case of `O=C1CCc2c(Oc3ccc4c(c3)[C@H]3[C@H](NC(=O)Nc5ccc(Br)cc5Cl)[C@H]3O4)ccnc2N1` [Compound 1.10], the half-inhibitory concentration (IC50) was found to be 6.3 nM.

In the case of `O=C1CCc2c(Oc3ccc4c(c3)[C@H]3[C@H](NC(=O)Nc5cccc([N+](=O)[O-])c5)[C@H]3O4)ccnc2N1` [Compound 1.13], the IC50 stood at 1.8 nM.

For the molecule `COc1ccc(NC(=O)N[C@@H]2[C@H]3Oc4ccc(Oc5ccnc6c5CCC(=O)N6)cc4[C@@H]23)cc1OC` [Compound 1.15], the IC50 turned out to be 2.3 nM.

Consider `O=C1CCc2c(Oc3ccc4c(c3)[C@H]3[C@H](NC(=O)Nc5ccc6c(c5)CCC6)[C@H]3O4)ccnc2N1` [Compound 1.16], for which the IC50 amounted to 2.6 nM.

In the case of `COc1cc(NC(=O)N[C@@H]2[C@H]3Oc4ccc(Oc5ccnc6c5CCC(=O)N6)cc4[C@@H]23)cc(OC)c1` [Compound 1.17], the IC50 is 1.5 nM.

With `CC(C)(C)c1ccc(NC(=O)N[C@@H]2[C@H]3Oc4ccc(Oc5ccnc6c5CCC(=O)N6)cc4[C@@H]23)cc1` [Compound 1.18], the IC50 came to 16 nM.

Regarding `CN(C)Cc1ccc(NC(=O)N[C@@H]2[C@H]3Oc4ccc(Oc5ccnc6c5CCC(=O)N6)cc4[C@@H]23)cc1` [Compound 1.26], the IC50 was found to be 2680 nM.

For `COc1cc(NC(=O)N[C@@H]2[C@H]3Oc4ccc(Oc5ccnc6c5CCC(=O)N6)cc4[C@@H]23)c(Cl)cc1Cl` [Compound 1.27], the IC50 stood at 11 nM.

`O=C1CCc2c(Oc3ccc4c(c3)[C@H]3[C@H](NC(=O)Nc5ccncn5)[C@H]3O4)ccnc2N1` [Compound 1.36]: the IC50 came out at 1.3 nM.

On to `O=C1CCc2c(Oc3ccc4c(c3)[C@H]3[C@H](NC(=O)Nc5cc(Cl)ccn5)[C@H]3O4)ccnc2N1` [Compound 1.37], for which the IC50 is 0.85 nM.

Take `O=C1CCc2c(Oc3ccc4c(c3)[C@H]3[C@H](NC(=O)Nc5ccc(C(F)(F)F)cn5)[C@H]3O4)ccnc2N1` [Compound 1.38]: the IC50 came to 4 nM.

Turning to `Cc1ccncc1NC(=O)N[C@@H]1[C@H]2Oc3ccc(Oc4ccnc5c4CCC(=O)N5)cc3[C@@H]12` [Compound 1.39], the IC50 is 2.6 nM.

For the molecule `COc1ccc(NC(=O)N[C@@H]2[C@H]3Oc4ccc(Oc5ccnc6c5CCC(=O)N6)cc4[C@@H]23)cc1` [Compound 1.50], the IC50 worked out at 0.8 nM.

For the molecule `O=C1CCc2c(Oc3ccc4c(c3)[C@H]3[C@H](NC(=O)NCc5ccc(C(F)(F)F)cc5)[C@H]3O4)ccnc2N1` [Compound 1.56], the IC50 is 158 nM.

As to `CN1CCN(Cc2ccc(NC(=O)N[C@@H]3[C@H]4Oc5ccc(Oc6ccnc7c6CCC(=O)N7)cc5[C@@H]34)cc2)CC1` [Compound 1.63], the IC50 was > 5000 nM.

On to `O=C1CCc2c(Oc3ccc4c(c3)[C@H]3[C@H](NC(=O)Nc5ccc(C(F)(F)F)c(F)c5)[C@H]3O4)ccnc2N1` [Compound 1.64], for which the 50% inhibitory concentration (IC50) came out at 27 nM.

For `O=C1CCc2c(Oc3ccc4c(c3)[C@H]3[C@H](NC(=O)Nc5cc(C(F)(F)F)cc(C(F)(F)F)c5)[C@H]3O4)ccnc2N1` [Compound 1.65], the IC50 was found to be 116 nM.

In the case of `CN1CCC(NC(=O)N[C@@H]2[C@H]3Oc4ccc(Oc5ccnc6c5CCC(=O)N6)cc4[C@@H]23)CC1` [Compound 1.68], the IC50 came to 20 nM.

Consider `O=C1CCc2c(Oc3ccc4c(c3)[C@H]3[C@H](NC(=O)NC5CC5)[C@H]3O4)ccnc2N1` [Compound 1.69], for which the IC50 came out at 30 nM.

Regarding `O=C1CCc2c(Oc3ccc4c(c3)[C@@H]3[C@@H](NC(=O)Nc5cc(C(F)(F)F)ccn5)[C@@H]3O4)ccnc2N1` [Compound 1.72], the IC50 is 1.9 nM.

As for `CCN1CCN(Cc2ccc(NC(=O)N[C@@H]3[C@H]4Oc5ccc(Oc6ccnc7c6CCC(=O)N7)cc5[C@@H]34)cc2F)CC1` [Compound 1.74], the IC50 is 821 nM.

With `CCCCCCCCCCNC(=O)N[C@@H]1[C@H]2Oc3ccc(Oc4ccnc5c4CCC(=O)N5)cc3[C@@H]12` [Compound 1.85], the IC50 was determined as 129 nM.

As to `CN1CCN(c2ccc(NC(=O)N[C@@H]3[C@H]4Oc5ccc(Oc6ccnc7c6CCC(=O)N7)cc5[C@@H]34)cc2C(F)(F)F)CC1` [Compound 1.86, 1-(4-(4-methylpiperazin-1-yl)-3-(trifluoromethyl)phenyl)-3-((1S,1aS,6bS)-5-((7-oxo-5,6,7,8-tetrahydro-1,8-naphthyridin-4-yl)oxy)-1a,6b-dihydro-1H-cyclopropa[b]benzofuran-1-yl)urea], the IC50 is 183 nM.

In the case of `CCN1CCN(c2ccc(NC(=O)N[C@@H]3[C@H]4Oc5ccc(Oc6ccnc7c6CCC(=O)N7)cc5[C@@H]34)cc2C(F)(F)F)CC1` [Compound 1.87], the IC50 is 227 nM.

Take `O=C(Nc1ccc(F)cc1F)N[C@@H]1[C@H]2Oc3ccc(Oc4ccncn4)cc3[C@@H]12` [Compound 2.1, 1-(2,4-difluorophenyl)-3-((1S,1aS,6bS)-5-(pyrimidin-4-yloxy)-1a,6b-dihydro-1H-cyclopropa[b]benzofuran-1-yl)urea]: the IC50 is 1100 nM.

With `O=C(Nc1ccc(F)c(F)c1)N[C@@H]1[C@H]2Oc3ccc(Oc4ccncn4)cc3[C@@H]12` [Compound 2.2], the IC50 was found to be 111 nM.

For the molecule `O=C(Nc1ccc(F)c(C(F)(F)F)c1)N[C@@H]1[C@H]2Oc3ccc(Oc4ccncc4)cc3[C@@H]12` [Compound 2.9], the IC50 is 24 nM.

As to `O=C(Nc1cc(F)c(F)cc1F)N[C@@H]1[C@H]2Oc3ccc(Oc4ccncc4)cc3[C@@H]12` [Compound 2.10], the IC50 was determined as 50 nM.

As to `O=C(Nc1cccc(C(F)(F)F)c1)N[C@@H]1[C@H]2Oc3ccc(Oc4ccncc4)cc3[C@@H]12` [Compound 2.11], the IC50 was 58 nM.

Take `O=C(Nc1ccc(F)c(C(F)(F)F)c1)N[C@@H]1[C@H]2Oc3ccc(Oc4ncnc5[nH]cnc45)cc3[C@@H]12` [Compound 2.12, 1-((1S,1aS,6bS)-5-((9H-purin-6-yl)oxy)-1a,6b-dihydro-1H-cyclopropa[b]benzofuran-1-yl)-3-(4-fluoro-3-(trifluoromethyl)phenyl)urea]: the half-maximal inhibitory concentration (IC50) was 10 nM.

Regarding `O=C(Nc1ccc(F)cc1F)N[C@@H]1[C@H]2Oc3ccc(Oc4ncnc5[nH]cnc45)cc3[C@@H]12` [Compound 2.13], the IC50 came to 24 nM.

For `Nc1cc(Oc2ccc3c(c2)[C@H]2[C@H](NC(=O)Nc4ccc(F)cc4F)[C@H]2O3)ccn1` [Compound 2.14, 1-((1S,1aS,6bS)-5-((2-aminopyridin-4-yl)oxy)-1a,6b-dihydro-1H-cyclopropa[b]benzofuran-1-yl)-3-(2,4-difluorophenyl)urea], the half-maximal inhibitory concentration (IC50) was 36 nM.

Turning to `CNC(=O)c1cc(Oc2ccc3c(c2)[C@H]2[C@H](NC(=O)Nc4ccc(Cl)c(C(F)(F)F)c4)[C@H]2O3)ccn1` [Compound 2.16], the half-inhibitory concentration (IC50) was determined as 88 nM.
